Laboratory results from patent US20220281848A1, “PYRAZOLE-SUBSTITUTED PYRROLIDINONES AS HERBICIDES” (FMC Corporation, priority 2019, published 2022).

Columns and labels:
Type in all cases: in vivo
[1] = test system: redroot pigweed (Amaranthus retroflexus, AMARE); assay: Test A pre-emergence, redroot pigweed; conditions: after 13 d
How it was run: (§1)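 Damage rated visually at 13 d on a 0–100 scale (100 = plant killed). Pre-emergence spray one day after sowing; doses 15.625, 62.5 or 250 g/ha from an acetone/water 50:50 formulation with 0.5% Tween 20. Glasshouse at 24/16° C., 14 h photoperiod, 65% humidity.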

[2] = test system: giant foxtail (Setaria faberi, SETFA); assay: Test A post-emergence, giant foxtail; conditions: after 13 d
How it was run: (§2)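 Post-emergence spray at 8 d after sowing; doses 15.625, 62.5 or 250 g/ha in acetone/water 50:50 + 0.5% Tween 20. Glasshouse 24/16 °C, 14 h light, 65% RH, watered twice daily. Visual damage rating 0–100 at 13 d.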

[3] = test system: barnyardgrass (Echinochloa crus-galli, ECHCG); assay: Test A pre-emergence, barnyardgrass; conditions: after 13 d
How it was run: as §1

maize = assay: Test D pre-emergence, maize seed treated with a herbicide safener; conditions: ZEAMX, preemergent, 20 DAA
Experimental: A formulation containing 50 g/L of the test chemical was prepared by dissolving the active ingredient in a mixture of organic solvents and emulsifier, details of which are provided in the table. This formulation was then mixed with a small, variable amount of acetone to aid dissolution, before addition of a 0.2% v/v aqueous solution of an adjuvant, as the aqueous diluent, to form an aqueous spray solution which contains a predetermined concentration of the active ingredient.
This aqueous spray solution was then sprayed onto plants including maize and wheat that had been seed treated with a herbicide safener, after one day's cultivation (for pre-emergence) or after about 12 days' cultivation (for post-emergence). The plants were grown from seeds sown in standard soil, placed in a glasshouse under controlled conditions (at 24/18° C. or 20/16° C., day/night; 16 h light; 65% humidity). After spray application the plants were then grown in a glasshouse under the same conditions and watered twice daily. After 15 d for post-emergence and 20 DAA for pre-emergence the test was evaluated (100=total damage to plant; 0=no damage to plant).

corn (Zea mays, ZEAMX) = assay: Test A post-emergence, corn; conditions: after 13 d
How it was run: as §2

SMILES	damage to plant (100=total damage; 0=no damage) AMARE ([1]; Pre-Emergence at 15.625 g/ha)	damage to plant (100=total damage; 0=no damage) AMARE ([1]; Pre-Emergence at 62.5 g/ha)	damage to plant (100=total damage; 0=no damage) AMARE ([1]; Pre-Emergence at 250 g/ha)	damage to plant (100=total damage; 0=no damage) SETFA ([2]; Post-Emergence at 15.625 g/ha)	damage to plant (100=total damage; 0=no damage) SETFA ([2]; Post-Emergence at 62.5 g/ha)	damage to plant (100=total damage; 0=no damage) SETFA ([2]; Post-Emergence at 250 g/ha)	damage to plant (100=total damage; 0=no damage) ECHCG ([3]; Pre-Emergence at 15.625 g/ha)	damage to plant (100=total damage; 0=no damage) ECHCG ([3]; Pre-Emergence at 62.5 g/ha)	damage to plant (100=total damage; 0=no damage) ECHCG ([3]; Pre-Emergence at 250 g/ha)	damage to plant (100=total damage to plant; 0=no damage to plant), ZEAMX (maize; rate 15)	damage to plant (100=total damage to plant; 0=no damage to plant), ZEAMX (maize; rate 30)	damage to plant (100=total damage to plant; 0=no damage to plant), ZEAMX (maize; rate 60)	damage to plant (100=total damage to plant; 0=no damage to plant), ZEAMX (maize; rate 130)	damage to plant (100=total damage to plant; 0=no damage to plant), ZEAMX (maize; rate 250)	damage to plant (100=total damage to plant; 0=no damage to plant), ZEAMX (maize; rate 500)	damage to plant (100=total damage; 0=no damage) ZEAMX (corn (Zea mays, ZEAMX); Post-Emergence at 15.625 g/ha)	damage to plant (100=total damage; 0=no damage) ZEAMX (corn (Zea mays, ZEAMX); Post-Emergence at 62.5 g/ha)	damage to plant (100=total damage; 0=no damage) ZEAMX (corn (Zea mays, ZEAMX); Post-Emergence at 250 g/ha)
CN1CC(c2cc(C(F)(F)F)n(C)n2)C(C(=O)Nc2cccc(F)c2F)C1=O (racemic) [Compound 3]	20	20	70	80	90	90	100	100	100	0	0	0	0	0	0	0	50	80
CN1CC(c2cc(C(F)(F)F)n(C)n2)C(C(=O)Nc2ccc(F)cc2F)C1=O (racemic) [Compound 6]	20	20	50	0	70	70	80	90	90	0	0	0	0	0	0	10	20	60
CCn1nc([C@H]2CN(C)C(=O)[C@@H]2C(=O)Nc2cccc(F)c2F)c2c(F)cccc21 [Compound 7]	0	0	0	60	70	80	70	80	90	0	0	0	0	0	10	20	40	80
CN1CC(c2cc(C(F)(F)F)n(C)n2)C(C(=O)Nc2ccccc2F)C1=O (racemic) [Compound 9]	0	0	20	40	90	90	80	90	90	0	0	0	0	0	0	20	0	50
CCn1nc([C@H]2CN(C)C(=O)[C@@H]2C(=O)Nc2cccc(F)c2F)c2ccc(F)cc21 [Compound 4]	0	20	40	90	90	90	90	90	100	0	0	0	0	0	10	20	50	90
CCn1nc([C@H]2CN(C)C(=O)[C@@H]2C(=O)Nc2cccc(F)c2F)c2cc(F)ccc21 [Compound 8]	0	0	0	70	70	80	80	90	90	0	0	0	0	0	10	20	60	80
CN1CC(c2cc(C(F)(F)F)n(C)n2)C(C(=O)Nc2cccc(F)n2)C1=O (racemic) [Compound 24]	0	0	0	20	70	80	90	100	100	0	0	0	0	0	0	0	10	40
